Assay results published in PubChem BioAssay AID2060602 (Molecular Pharmacology Branch, DTP, NCI, 2025).

Tested on: 648629-189-R-J1-PDC complex spheroids viability
Test: Anticancer human tumor 648629-189-R-J1-PDC patient-derived bladder carcinoma cell line growth inhibition [CLK]
Details: for viability, T/C: stronger effect = lower value
Summary of the method: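 Multi-cell-type spheroids combined patient-derived tumor cells with HUVEC endothelial cells and human mesenchymal stem cells. Paired agents were dosed in half-log steps down from about clinical Cmax, or from 10 microM where Cmax was unknown.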

[1] = curve of first compound, second compound 0.0316 µM
[2] = curve of first compound, second compound 0.1 µM
[3] = curve of first compound, second compound 0.316 µM
[4] = curve of first compound, second compound 1 µM
[5] = curve of first compound, second compound 3.16 µM
[6] = curve of first compound, second compound 10 µM
[7] = second compound 0.0316 µM, first compound 0.0316 µM
[8] = second compound 0.0316 µM, first compound 0.1 µM
[9] = second compound 0.0316 µM, first compound 0.316 µM
[10] = second compound 0.0316 µM, first compound 1 µM
[11] = second compound 0.0316 µM, first compound 3.16 µM
[12] = second compound 0.0316 µM, first compound 10 µM
[13] = second compound 0.1 µM, first compound 0.0316 µM
[14] = second compound 0.1 µM, first compound 0.1 µM
[15] = second compound 0.1 µM, first compound 0.316 µM
[16] = second compound 0.1 µM, first compound 1 µM
[17] = second compound 0.1 µM, first compound 3.16 µM
[18] = second compound 0.1 µM, first compound 10 µM
[19] = second compound 0.316 µM, first compound 0.0316 µM
[20] = second compound 0.316 µM, first compound 0.1 µM
[21] = second compound 0.316 µM, first compound 0.316 µM
[22] = second compound 0.316 µM, first compound 1 µM
[23] = second compound 0.316 µM, first compound 3.16 µM
[24] = second compound 0.316 µM, first compound 10 µM
[25] = second compound 1 µM, first compound 0.0316 µM
[26] = second compound 1 µM, first compound 0.1 µM
[27] = second compound 1 µM, first compound 0.316 µM
[28] = second compound 1 µM, first compound 1 µM
[29] = second compound 1 µM, first compound 3.16 µM
[30] = second compound 1 µM, first compound 10 µM
[31] = second compound 3.16 µM, first compound 0.0316 µM
[32] = second compound 3.16 µM, first compound 0.1 µM
[33] = second compound 3.16 µM, first compound 0.316 µM
[34] = second compound 3.16 µM, first compound 1 µM
[35] = second compound 3.16 µM, first compound 3.16 µM
[36] = second compound 3.16 µM, first compound 10 µM
[37] = second compound 10 µM, first compound 0.0316 µM
[38] = second compound 10 µM, first compound 0.1 µM
[39] = second compound 10 µM, first compound 0.316 µM
[40] = second compound 10 µM, first compound 1 µM
[41] = second compound 10 µM, first compound 3.16 µM
[42] = second compound 10 µM, first compound 10 µM
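For viability, T/C in this document: drug exposure lasted seven days before viability readout; 100% = DMSO vehicle control wells.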

`CNC(=O)c1ccc(Nc2nc(OC3CCCC3)c3c(-c4ccc5nc(C)oc5c4)c[nH]c3n2)c(OC)c1` was tested, and the viability, T/C (compound 0.0316 µM) was 108% [middle of 12 runs], the viability, T/C (compound 0.1 µM) was 88.3% [middle of 12 runs] and the viability, T/C (compound 0.316 µM) was 28% [middle of 12 runs]. For the same compound, the viability, T/C (compound 1 µM) was 19.8% [middle of 12 runs], the viability, T/C (compound 3.16 µM) was 19% [middle of 12 runs] and the viability, T/C (compound 10 µM) was 20% [middle of 12 runs]. The IC50 (compound alone, run of 08/01/2023) was 209 nM [middle of 10 runs].
For `C=CC(=O)N1CCN(c2nc(=O)n(-c3c(C)ccnc3C(C)C)c3nc(-c4c(O)cccc4F)c(F)cc23)C(C)C1` (stereo unspecified) + CN1CCN(c2cc(C(=O)Nc3cc4cc(-c5cnn(C)c5)ccc4cn3)ccn2)CC1, the IC50 [1] was over 10 µM, the IC50 [2] was over 10 µM and the IC50 [3] was 1.03 µM. For the same compound, the IC50 [4] was under 0.0316 µM, the IC50 [5] was under 0.0316 µM and the IC50 [6] was under 0.0316 µM. For the same compound, the viability, T/C [7] was 109%, the viability, T/C [8] was 113% and the viability, T/C [9] was 104%. The viability, T/C [10] was 115%, the viability, T/C [11] was 108% and the viability, T/C [12] was 89%. The viability, T/C [13] was 89.6%, the viability, T/C [14] was 99.5% and the viability, T/C [15] was 99.4%. For the same compound, the viability, T/C [16] was 114%, the viability, T/C [17] was 98.9% and the viability, T/C [18] was 102%. The viability, T/C [19] was 47.3%, the viability, T/C [20] was 55.5% and the viability, T/C [21] was 50.5%. It also gave a viability, T/C [22] of 50.4%, a viability, T/C [23] of 38% and a viability, T/C [24] of 20.2%. The viability, T/C [25] was 0.58%, the viability, T/C [26] was 0.57% and the viability, T/C [27] was 0.3%. For the same compound, the viability, T/C [28] was 0.5%, the viability, T/C [29] was 0.34% and the viability, T/C [30] was 0.13%. For the same compound, the viability, T/C [31] was 0.13%, the viability, T/C [32] was 0.17% and the viability, T/C [33] was 0.14%. The viability, T/C [34] was 0.13%, the viability, T/C [35] was 0.11% and the viability, T/C [36] was 0.11%. The viability, T/C [37] was 0.15%, the viability, T/C [38] was 0.19% and the viability, T/C [39] was 0.16%. The viability, T/C [40] was 0.18%, the viability, T/C [41] was 0.22% and the viability, T/C [42] was 0.15%.
`COc1cccc2c1C(=O)c1c(O)c3c(c(O)c1C2=O)CC(O)(C(=O)CO)CC3OC1CC(N)C(O)C(C)O1` (stereo unspecified) + CN1CCN(c2cc(C(=O)Nc3cc4cc(-c5cnn(C)c5)ccc4cn3)ccn2)CC1 was tested, and the IC50 [1] was under 0.0316 µM, the IC50 [2] was under 0.0316 µM and the IC50 [3] was under 0.0316 µM. It also gave an IC50 [4] of under 0.0316 µM, an IC50 [5] of under 0.0316 µM and an IC50 [6] of under 0.0316 µM. It also gave a viability, T/C [7] of 22.1%, a viability, T/C [8] of 17.5% and a viability, T/C [9] of 7.83%. It also gave a viability, T/C [10] of 0.53%, a viability, T/C [11] of 0.16% and a viability, T/C [12] of 1.13%. For the same compound, the viability, T/C [13] was 16.5%, the viability, T/C [14] was 14.2% and the viability, T/C [15] was 5%. It also gave a viability, T/C [16] of 0.45%, a viability, T/C [17] of 0.14% and a viability, T/C [18] of 0.19%. The viability, T/C [19] was 16.5%, the viability, T/C [20] was 13.5% and the viability, T/C [21] was 4.02%. The viability, T/C [22] was 0.15%, the viability, T/C [23] was 0.1% and the viability, T/C [24] was 0.12%. The viability, T/C [25] was 0.16%, the viability, T/C [26] was 0.14% and the viability, T/C [27] was 0.14%. For the same compound, the viability, T/C [28] was 0.08%, the viability, T/C [29] was 0.11% and the viability, T/C [30] was 0.08%. For the same compound, the viability, T/C [31] was 0.06%, the viability, T/C [32] was 0.1% and the viability, T/C [33] was 0.09%. It also gave a viability, T/C [34] of 0.07%, a viability, T/C [35] of 0.09% and a viability, T/C [36] of 0.08%. For the same compound, the viability, T/C [37] was 0.05%, the viability, T/C [38] was 0.61% and the viability, T/C [39] was 0.11%. The viability, T/C [40] was 0.12%, the viability, T/C [41] was 0.11% and the viability, T/C [42] was 0.1%.
